Values quoted from earlier work in patent publication US6620432B2, “Phenytoin sodium pharmaceutical compositions” (Mylan Pharmaceuticals Inc., priority 1999, dated 2003).
Where a name gives a salt, the structure may show the parent alone.

Settings: general statement, no test described

Solubility in water | Compound
highly water soluble | O=C1NC(=O)C(c2ccccc2)(c2ccccc2)N1 [Phenytoin sodium, monosodium salt of 5,5-diphenyl hydantoinate]
water insoluble | O=C1NC(=O)C(c2ccccc2)(c2ccccc2)N1 [phenytoin]
